Inconclusive results and toxic doses are left out. How the source made its calls: active means survival T/C of 150% or more; inactive means T/C below 125% in these data.
Tested on: CD2F1 mice, L1210 leukemia ip, survival T/C
Assay: NCI In Vivo Anticancer Drug Screen. Data for tumor model L1210 Leukemia (intraperitoneal) in CD2F1 (CDF1) mice
Conditions: higher = longer survival
Outline: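 In this screen, transplantable tumors were grown in mice given either the compound or its vehicle. Results were expressed as the treated measurement relative to the control measurement.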

[1] = endpoint: mean survival time, dose: 50.0 mg/kg/injection, schedule: Q01DX009 (ip), vehicle: Klucel (hydroxypropylcellulose) (HPC)
[2] = endpoint: mean survival time, dose: 100.0 mg/kg/injection, schedule: Q01DX009 (ip), vehicle: Klucel (hydroxypropylcellulose) (HPC)
[3] = endpoint: mean survival time, dose: 200.0 mg/kg/injection, schedule: Q01DX009 (ip), vehicle: Klucel (hydroxypropylcellulose) (HPC)
[4] = endpoint: mean survival time, dose: 100.0 mg/kg/injection, schedule: Q01DX001 (ip), vehicle: saline
[5] = endpoint: mean survival time, dose: 100.0 mg/kg/injection, schedule: Q01DX009 (ip), vehicle: saline
[6] = endpoint: mean survival time, dose: 200.0 mg/kg/injection, schedule: Q01DX001 (ip), vehicle: saline
[7] = endpoint: mean survival time, dose: 200.0 mg/kg/injection, schedule: Q01DX009 (ip), vehicle: saline
[8] = endpoint: mean survival time, dose: 400.0 mg/kg/injection, schedule: Q01DX001 (ip), vehicle: saline
[9] = endpoint: mean survival time, dose: 400.0 mg/kg/injection, schedule: Q01DX009 (ip), vehicle: saline
[10] = endpoint: mean survival time, dose: 100.0 mg/kg/injection, schedule: Q01DX001 (ip), vehicle: saline with Tween-80
[11] = endpoint: mean survival time, dose: 400.0 mg/kg/injection, schedule: Q01DX001 (ip), vehicle: saline with Tween-80
[12] = endpoint: mean survival time, dose: 100.0 mg/kg/injection, schedule: Q04DX003 (ip), vehicle: saline with Tween-80
[13] = endpoint: mean survival time, dose: 200.0 mg/kg/injection, schedule: Q04DX003 (ip), vehicle: saline with Tween-80
[14] = endpoint: mean survival time, dose: 400.0 mg/kg/injection, schedule: Q04DX003 (ip), vehicle: saline with Tween-80
[15] = endpoint: mean survival time, dose: 200.0 mg/kg/injection, schedule: Q01DX001 (ip), vehicle: saline with Tween-80
[16] = endpoint: mean survival time, dose: 100.0 mg/kg/injection, schedule: Q01DX009 (ip), vehicle: saline with Tween-80
[17] = endpoint: mean survival time, dose: 200.0 mg/kg/injection, schedule: Q01DX009 (ip), vehicle: saline with Tween-80
[18] = endpoint: mean survival time, dose: 400.0 mg/kg/injection, schedule: Q01DX009 (ip), vehicle: saline with Tween-80

Measured: T/C

COc1ccc(NC(=O)Nc2nccs2)c(Cl)c1
inactive: [1] 98 % of control | [2] 98 % of control | endpoint: mean survival time, dose: 100.0 mg/kg/injection, schedule: Q04DX003 (ip), vehicle: Klucel (hydroxypropylcellulose) (HPC) 106 % of control | [3] 87 % of control | endpoint: mean survival time, dose: 200.0 mg/kg/injection, schedule: Q04DX003 (ip), vehicle: Klucel (hydroxypropylcellulose) (HPC) 102 % of control | endpoint: mean survival time, dose: 400.0 mg/kg/injection, schedule: Q04DX003 (ip), vehicle: Klucel (hydroxypropylcellulose) (HPC) 98 % of control

CCCOC(=O)C(SCCN(C)C)c1ccccc1 (stereo not given)
inactive: [4] 102 % of control | [5] 93 % of control | [6] 97 % of control | [7] 100 % of control | [8] 94 % of control | [9] 98 % of control

c1cncc(-c2nnc(-c3cccnc3)o2)c1
inactive: endpoint: mean survival time, dose: 1.56 mg/kg/injection, schedule: Q04DX002 (ip), vehicle: saline with Tween-80 101 % of control | endpoint: mean survival time, dose: 3.13 mg/kg/injection, schedule: Q04DX002 (ip), vehicle: saline with Tween-80 104 % of control | endpoint: mean survival time, dose: 6.25 mg/kg/injection, schedule: Q04DX002 (ip), vehicle: saline with Tween-80 104 % of control | endpoint: mean survival time, dose: 12.5 mg/kg/injection, schedule: Q04DX002 (ip), vehicle: saline with Tween-80 104 % of control | endpoint: mean survival time, dose: 100.0 mg/kg/injection, schedule: Q04DX002 (ip), vehicle: saline with Tween-80 87 % of control | endpoint: mean survival time, dose: 200.0 mg/kg/injection, schedule: Q04DX002 (ip), vehicle: saline with Tween-80 87 % of control

COc1ccc(C2N(C)CCCN2C)c(OC)c1
inactive: endpoint: mean survival time, dose: 6.25 mg/kg/injection, schedule: Q01DX009 (ip), vehicle: saline sonified 103 % of control | endpoint: mean survival time, dose: 6.25 mg/kg/injection, schedule: Q04DX003 (ip), vehicle: saline sonified 101 % of control | endpoint: mean survival time, dose: 12.5 mg/kg/injection, schedule: Q01DX009 (ip), vehicle: saline sonified 103 % of control | endpoint: mean survival time, dose: 12.5 mg/kg/injection, schedule: Q04DX003 (ip), vehicle: saline sonified 108 % of control | endpoint: mean survival time, dose: 25.0 mg/kg/injection, schedule: Q01DX009 (ip), vehicle: saline sonified 98 % of control | endpoint: mean survival time, dose: 25.0 mg/kg/injection, schedule: Q04DX003 (ip), vehicle: saline sonified 100 % of control

C=CC1OC2CCCCC2O1 (stereo not given)
inactive: endpoint: mean survival time, dose: 100.0 mg/kg/injection, schedule: Q01DX001 (ip), vehicle: acetone 104 % of control

CCC1(C)CC(=O)NC1=O (stereo not given)
inactive: endpoint: mean survival time, dose: 75.0 mg/kg/injection, schedule: Q01DX001 (ip), vehicle: saline 98 % of control | endpoint: mean survival time, dose: 150.0 mg/kg/injection, schedule: Q01DX001 (ip), vehicle: saline 104 % of control | endpoint: mean survival time, dose: 300.0 mg/kg/injection, schedule: Q01DX001 (ip), vehicle: saline 96 % of control

CN(C)N=Nc1ccc(C#N)cc1C(N)=O
inactive: endpoint: mean survival time, dose: 18.8 mg/kg/injection, schedule: Q01DX009 (ip), vehicle: Klucel (hydroxypropylcellulose) (HPC) 106 % of control | endpoint: mean survival time, dose: 37.5 mg/kg/injection, schedule: Q01DX009 (ip), vehicle: Klucel (hydroxypropylcellulose) (HPC) 119 % of control | endpoint: mean survival time, dose: 150.0 mg/kg/injection, schedule: Q01DX009 (ip), vehicle: Klucel (hydroxypropylcellulose) (HPC) 101 % of control

OC(c1ccccc1)(c1ccccc1)c1cc2ccccc2[nH]1
inactive: [10] 89 % of control | [11] 89 % of control

CC1(O)Nc2nc3nc[nH]c3c(=O)n2C1O (stereo not given)
inactive: endpoint: mean survival time, dose: 12.5 mg/kg/injection, schedule: Q01DX005 (ip), vehicle: water 94 % of control | endpoint: mean survival time, dose: 25.0 mg/kg/injection, schedule: Q01DX005 (ip), vehicle: water 90 % of control | endpoint: mean survival time, dose: 50.0 mg/kg/injection, schedule: Q01DX005 (ip), vehicle: water 100 % of control | endpoint: mean survival time, dose: 100.0 mg/kg/injection, schedule: Q01DX005 (ip), vehicle: water 94 % of control | endpoint: mean survival time, dose: 200.0 mg/kg/injection, schedule: Q01DX005 (ip), vehicle: water 93 % of control

Clc1ccc(N=Cc2ccccc2Cl)cc1
inactive: [12] 107 % of control | [13] 113 % of control | [14] 100 % of control

C#CC(=O)OCC#CCOC(=O)C#C
inactive: endpoint: mean survival time, dose: 0.75 mg/kg/injection, schedule: Q01DX009 (ip), vehicle: saline with Tween-80 98 % of control | endpoint: mean survival time, dose: 1.5 mg/kg/injection, schedule: Q01DX009 (ip), vehicle: saline with Tween-80 100 % of control | endpoint: mean survival time, dose: 3.0 mg/kg/injection, schedule: Q01DX009 (ip), vehicle: saline with Tween-80 98 % of control | endpoint: mean survival time, dose: 6.0 mg/kg/injection, schedule: Q01DX009 (ip), vehicle: saline with Tween-80 98 % of control | endpoint: mean survival time, dose: 12.0 mg/kg/injection, schedule: Q01DX009 (ip), vehicle: saline with Tween-80 90 % of control

[Cl][Pt]([Cl])[Cl].[NH-]C1CN2CCC1CC2 (stereo not given)
inactive: endpoint: mean survival time, dose: 2.5 mg/kg/injection, schedule: Q04DX003 (ip), vehicle: saline with Tween-80 119 % of control | endpoint: mean survival time, dose: 5.0 mg/kg/injection, schedule: Q04DX003 (ip), vehicle: saline with Tween-80 122 % of control

COC(=O)/C(=N\NS(=O)(=O)c1ccc(C)cc1)c1ccccc1
inactive: endpoint: mean survival time, dose: 25.0 mg/kg/injection, schedule: Q01DX009 (ip), vehicle: Klucel (hydroxypropylcellulose) (HPC) 100 % of control | [1] 102 % of control | [2] 102 % of control | [3] 91 % of control | endpoint: mean survival time, dose: 400.0 mg/kg/injection, schedule: Q01DX009 (ip), vehicle: Klucel (hydroxypropylcellulose) (HPC) 91 % of control

CC(=O)OC(c1ccccc1)C(C)C(O)(C(F)(F)F)C(F)(F)F (stereo not given)
inactive: [10] 98 % of control | [15] 87 % of control | [11] 95 % of control

CCCCCCCCCCCC(CCCCCCC)c1ccc(C)cc1 (stereo not given)
inactive: [4] 91 % of control | [6] 94 % of control | [8] 97 % of control

CCCCCCCCCCCCCCCCSC(=S)OCC
inactive: [10] 95 % of control | [16] 96 % of control | [15] 87 % of control | [17] 95 % of control | [11] 95 % of control | [18] 95 % of control

CC(=N\NC(=O)c1ccccc1)/C(C)=N/NC(=O)c1ccccc1
inactive: [12] 90 % of control | [13] 86 % of control | [14] 90 % of control

CCCN1COC(OCC)C(C)(C)C1 (stereo not given)
inactive: endpoint: mean survival time, dose: 12.5 mg/kg/injection, schedule: Q01DX009 (ip), vehicle: saline with Tween-80 112 % of control | endpoint: mean survival time, dose: 12.5 mg/kg/injection, schedule: Q01DX009 (ip), vehicle: saline 91 % of control | endpoint: mean survival time, dose: 25.0 mg/kg/injection, schedule: Q01DX009 (ip), vehicle: saline with Tween-80 100 % of control | endpoint: mean survival time, dose: 25.0 mg/kg/injection, schedule: Q01DX009 (ip), vehicle: saline 100 % of control | endpoint: mean survival time, dose: 50.0 mg/kg/injection, schedule: Q01DX009 (ip), vehicle: saline with Tween-80 107 % of control | endpoint: mean survival time, dose: 50.0 mg/kg/injection, schedule: Q01DX009 (ip), vehicle: saline 103 % of control | [16] 114 % of control | [5] 97 % of control | [17] 106 % of control | [7] 109 % of control

CC1CN(c2ccccc2)NC1=O (stereo not given)
inactive: [5] 104 % of control | [7] 105 % of control | [9] 102 % of control

Nc1nc(C=O)nc2c1ncn2C1OC(CO)C(O)C1O (stereo not given)
inactive: endpoint: median survival time, dose: 25.0 mg/kg/injection, schedule: Q01DX005 (ip), vehicle: water 101 % of control | endpoint: median survival time, dose: 50.0 mg/kg/injection, schedule: Q01DX005 (ip), vehicle: water 117 % of control | endpoint: median survival time, dose: 100.0 mg/kg/injection, schedule: Q01DX005 (ip), vehicle: water 117 % of control

CC1=C(C)C2(C)C(C)(O)C(C)(O)C12C (stereo not given)
inactive: endpoint: mean survival time, dose: 18.75 mg/kg/injection, schedule: Q01DX009 (ip), vehicle: saline with Tween-80 98 % of control | endpoint: mean survival time, dose: 37.5 mg/kg/injection, schedule: Q01DX009 (ip), vehicle: saline with Tween-80 93 % of control | endpoint: mean survival time, dose: 75.0 mg/kg/injection, schedule: Q01DX009 (ip), vehicle: saline with Tween-80 96 % of control

CC(C)=CC(C)OC(=O)N(C)C (stereo not given)
inactive: [12] 97 % of control | [13] 94 % of control

Cc1ccc2c(c1Oc1ccc(S(N)(=O)=O)cc1)C(=O)c1ccccc1C2=O
inactive: [16] 103 % of control | endpoint: mean survival time, dose: 100.0 mg/kg/injection, schedule: Q04DX003 (ip), vehicle: saline sonified 88 % of control | [12] 90 % of control | [17] 101 % of control | [18] 97 % of control | endpoint: mean survival time, dose: 400.0 mg/kg/injection, schedule: Q04DX003 (ip), vehicle: saline sonified 107 % of control
